Measurements from publication PMC11284788, “NN1213 – A Potent, Long-Acting, and Selective Analog of Human Amylin” (Journal of Medicinal Chemistry, 2024).
Read-outs that look alike come from different tables or passages of the source.

Legend:
hCTR = target: T1, hCTR (Homo sapiens, UniProt P30988); experiment: cAMP-responsive element luciferase reporter assay, human CTR; type: cell-based; conditions: luciferase (human receptor assay); for hCTR pEC50: Tables S12 and S14
T1 sequence (P30988 25-474): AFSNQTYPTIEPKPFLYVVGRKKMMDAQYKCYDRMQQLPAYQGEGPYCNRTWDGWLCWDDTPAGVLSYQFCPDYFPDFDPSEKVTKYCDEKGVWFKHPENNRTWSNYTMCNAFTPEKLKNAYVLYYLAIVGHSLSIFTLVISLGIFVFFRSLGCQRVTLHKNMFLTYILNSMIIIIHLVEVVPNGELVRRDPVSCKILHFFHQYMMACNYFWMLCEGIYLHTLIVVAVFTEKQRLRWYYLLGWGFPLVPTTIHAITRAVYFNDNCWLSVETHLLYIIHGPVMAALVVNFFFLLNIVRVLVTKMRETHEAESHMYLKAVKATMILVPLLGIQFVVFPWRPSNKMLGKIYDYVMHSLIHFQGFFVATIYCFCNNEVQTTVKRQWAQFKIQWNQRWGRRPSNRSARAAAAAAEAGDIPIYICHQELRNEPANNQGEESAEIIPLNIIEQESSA

rat AMY3R = target: T2, rat AMY3R (Rattus norvegicus, UniProt P32214+Q9JJ73); experiment: cAMP FlashPlate assay, rat AMY3R; type: cell-based; conditions: for EC50: cAMP (rat receptor assay); for ratio rCTR/rAMY3R: ratio of cAMP EC50 values
T2 construct: expressed in transfected cells; host or cells: BHK tk-ts 13, transient co-transfection (FuGENE 6)
T2 sequence (P32214 25-479 isoform P32214-2 limits assumed): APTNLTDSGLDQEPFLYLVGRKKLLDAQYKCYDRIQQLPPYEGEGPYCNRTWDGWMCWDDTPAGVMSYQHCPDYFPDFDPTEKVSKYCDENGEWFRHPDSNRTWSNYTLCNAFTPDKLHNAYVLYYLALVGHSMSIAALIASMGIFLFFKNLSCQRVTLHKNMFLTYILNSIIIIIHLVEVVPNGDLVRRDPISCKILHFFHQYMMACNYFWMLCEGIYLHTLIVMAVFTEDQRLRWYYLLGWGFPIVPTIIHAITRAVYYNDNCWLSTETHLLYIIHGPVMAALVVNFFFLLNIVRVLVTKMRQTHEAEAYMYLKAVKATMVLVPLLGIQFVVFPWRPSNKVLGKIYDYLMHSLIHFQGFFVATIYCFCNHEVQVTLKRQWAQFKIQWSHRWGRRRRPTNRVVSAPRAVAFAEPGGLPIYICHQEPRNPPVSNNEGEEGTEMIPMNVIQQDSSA
T2 sequence (Q9JJ73 23-147 partner): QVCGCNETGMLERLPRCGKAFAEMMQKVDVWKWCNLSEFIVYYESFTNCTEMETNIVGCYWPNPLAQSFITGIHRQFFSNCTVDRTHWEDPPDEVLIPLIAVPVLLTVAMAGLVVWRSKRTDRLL

rats = experiment: Acute food intake in rats; type: in vivo, rat; conditions: for Acute food intake reduction 0–24 h / Acute food intake reduction 24–48 h: single sc injection of 30 nmol/kg, relative to vehicle, mean ± SEM, n = 5–7 per group
rAMY3R = target: T3, rAMY3R (Rattus norvegicus, UniProt P32214+Q9JJ73); experiment: scintillation proximity binding assay, rAMY3R membranes; parameters: expressed in transfected cells; host or cells: BHK tk-ts 13, transient co-transfection (FuGENE 6); conditions: for ratio rCTR/rAMY3R: ratio of binding IC50 values
T3 sequence (P32214 25-479 isoform P32214-2 limits assumed): T2 sequence (P32214 25-479 isoform P32214-2 limits assumed)
T3 sequence (Q9JJ73 23-147 partner): T2 sequence (Q9JJ73 23-147 partner)

[1] = Tables S12 and S14, read-out: rAMY3R pEC50 (converted)
[2] = transiently transfected BHK tk-ts 13 cells, FlashPlate, 30 min room temperature, 2% HSA, read-out: rAMY3R EC50
[3] = SPA binding assay, Tables S13 and S15

| hCTR pEC50 (hCTR) | EC50 (hCTR; BHK cells stably expressing hCTR and CRE-luciferase, 3 h, 37 °C, 10% FBS, read-out: hCTR EC50) [nM] | EC50 (rat AMY3R; [1]) [nM] | EC50 (rat AMY3R; [2]) [nM] | ratio rCTR/rAMY3R (rat AMY3R) | rAMY3R pIC50 (rAMY3R; [3]) | ratio rCTR/rAMY3R (rAMY3R) | IC50 (rAMY3R; SPA binding assay, Tables S13 and S15, read-out: rAMY3R pIC50 (converted)) [nM] | IC50 (rAMY3R; SPA, BHK cell membranes, 125I-rat amylin, 120 min 25 °C, read-out: rAMY3R IC50) [nM] | Compound | Acute food intake reduction 0–24 h (rats) [%] | Acute food intake reduction 24–48 h (rats) [%] | food intake reduction, following 24 h (rats; single sc dose 3 nmol/kg, 24–48 h, compared to controls) [%] | food intake reduction, first 24 h (rats; single sc dose 3 nmol/kg, compared to controls) [%] | food intake reduction, first 24 h (rats; single sc dose 100 nmol/kg) [%] |
| --- | --- | --- | --- | --- | --- | --- | --- | --- | --- | --- | --- | --- | --- | --- |
| 8.58 | 2.61 | 0.603 | 0.599 | 50 | 8.77 | 52 | – | – | CC[C@H](C)[C@H](NC(=O)[C@H](C)NC(=O)CNC(=O)[C@H](Cc1ccccc1)NC(=O)[C@H](CC(N)=O)NC(=O)[C@@H]1CCCN1C(=O)[C@H](CO)NC(=O)[C@H](CO)NC(=O)[C@H](Cc1c[nH]cn1)NC(=O)[C@H](CCCNC(=N)N)NC(=O)[C@H](CC(C)C)NC(=O)[C@H](Cc1ccccc1)NC(=O)[C@H](CC(N)=O)NC(=O)[C@H](C)NC(=O)[C@H](CC(C)C)NC(=O)[C@H](CCCNC(=N)N)NC(=O)[C@H](CCC(N)=O)NC(=O)[C@@H](NC(=O)[C@H](C)NC(=O)[C@@H]1CSSC[C@H](NC(=O)[C@H](CCCCN)NC(=O)CC[C@H](NC(=O)CCCCCCCCCCCCCCCCCCC(=O)O)C(=O)O)C(=O)N[C@@H](CC(N)=O)C(=O)N[C@@H]([C@@H](C)O)C(=O)N[C@@H](C)C(=O)N[C@@H]([C@@H](C)O)C(=O)N1)[C@@H](C)O)C(=O)N1CCC[C@H]1C(=O)N[C@@H](CO)C(=O)N[C@@H](CO)C(=O)N[C@H](C(=O)N[C@@H](CC(N)=O)C(=O)N[C@H](C(=O)NCC(=O)N[C@@H](CO)C(=O)N[C@@H](CCCCN)C(=O)N[C@H](C(=O)N[C@@H](Cc1ccc(O)cc1)C(N)=O)[C@@H](C)O)C(C)C)[C@@H](C)O [Peptide 13] | 37 ± 7 | 25 ± 7 | – | – | – |
| – | – | 1.78 | 1.79 | 79 | 8.52 | 116 | – | – | CC[C@H](C)[C@H](NC(=O)[C@H](C)NC(=O)CNC(=O)[C@H](Cc1ccccc1)NC(=O)[C@H](CC(N)=O)NC(=O)[C@@H]1CCCN1C(=O)[C@H](CO)NC(=O)[C@H](CO)NC(=O)[C@H](Cc1c[nH]cn1)NC(=O)[C@H](CCCNC(=N)N)NC(=O)[C@H](CC(C)C)NC(=O)[C@H](Cc1ccccc1)NC(=O)[C@H](CC(N)=O)NC(=O)[C@H](C)NC(=O)[C@H](CC(C)C)NC(=O)[C@H](CCCNC(=N)N)NC(=O)[C@H](CCC(N)=O)NC(=O)[C@@H](NC(=O)[C@H](C)NC(=O)[C@@H]1CSSC[C@H](NC(=O)[C@H](CCCCN)NC(=O)COCCOCCNC(=O)COCCOCCNC(=O)CC[C@H](NC(=O)CCCCCCCCCCCCCCCCCCC(=O)O)C(=O)O)C(=O)N[C@@H](CC(N)=O)C(=O)N[C@@H]([C@@H](C)O)C(=O)N[C@@H](C)C(=O)N[C@@H]([C@@H](C)O)C(=O)N1)[C@@H](C)O)C(=O)N1CCC[C@H]1C(=O)N[C@@H](CO)C(=O)N[C@@H](CO)C(=O)N[C@H](C(=O)N[C@@H](CC(N)=O)C(=O)N[C@H](C(=O)NCC(=O)N[C@@H](CO)C(=O)N[C@@H](CC(N)=O)C(=O)N[C@H](C(=O)N[C@@H](Cc1ccc(O)cc1)C(N)=O)[C@@H](C)O)C(C)C)[C@@H](C)O [Peptide 10] | 22 ± 5 | 1 ± 5 | – | – | – |
| 8.26 | – | 0.759 | 0.754 | 49 | – | 60 | 0.912 | 0.92 | CC[C@H](C)[C@H](NC(=O)[C@H](C)NC(=O)CNC(=O)[C@H](Cc1ccccc1)NC(=O)[C@H](CC(N)=O)NC(=O)[C@@H]1CCCN1C(=O)[C@H](CO)NC(=O)[C@H](CO)NC(=O)[C@H](Cc1c[nH]cn1)NC(=O)[C@H](CCCNC(=N)N)NC(=O)[C@H](CC(C)C)NC(=O)[C@H](Cc1ccccc1)NC(=O)[C@H](CC(N)=O)NC(=O)[C@H](C)NC(=O)[C@H](CC(C)C)NC(=O)[C@H](CCCNC(=N)N)NC(=O)[C@H](CCC(N)=O)NC(=O)[C@@H](NC(=O)[C@H](C)NC(=O)[C@@H]1CSSC[C@H](NC(=O)[C@@H](N)CCCCNC(=O)CC[C@H](NC(=O)CCCCCCCCCCCCCCCCCCC(=O)O)C(=O)O)C(=O)N[C@@H](CC(N)=O)C(=O)N[C@@H]([C@@H](C)O)C(=O)N[C@@H](C)C(=O)N[C@@H]([C@@H](C)O)C(=O)N1)[C@@H](C)O)C(=O)N1CCC[C@H]1C(=O)N[C@@H](CO)C(=O)N[C@@H](CO)C(=O)N[C@H](C(=O)N[C@@H](CC(N)=O)C(=O)N[C@H](C(=O)NCC(=O)N[C@@H](CO)C(=O)N[C@@H](CCCCN)C(=O)N[C@H](C(=O)N[C@@H](Cc1ccc(O)cc1)C(N)=O)[C@@H](C)O)C(C)C)[C@@H](C)O [Peptide 14] | – | 15 ± 4 | – | – | – |

| Compound | hCTR pEC50 (hCTR) | EC50 (hCTR; BHK cells stably expressing hCTR and CRE-luciferase, 3 h, 37 °C, 10% FBS, read-out: hCTR EC50) [nM] | EC50 (rat AMY3R; [1]) [nM] | EC50 (rat AMY3R; [2]) [nM] | ratio rCTR/rAMY3R (rat AMY3R) | rAMY3R pIC50 (rAMY3R; [3]) | ratio rCTR/rAMY3R (rAMY3R) | IC50 (rAMY3R; SPA binding assay, Tables S13 and S15, read-out: rAMY3R pIC50 (converted)) [nM] | IC50 (rAMY3R; SPA, BHK cell membranes, 125I-rat amylin, 120 min 25 °C, read-out: rAMY3R IC50) [nM] | Acute food intake reduction 0–24 h (rats) [%] | Acute food intake reduction 24–48 h (rats) [%] | food intake reduction, following 24 h (rats; single sc dose 3 nmol/kg, 24–48 h, compared to controls) [%] | food intake reduction, first 24 h (rats; single sc dose 3 nmol/kg, compared to controls) [%] | food intake reduction, first 24 h (rats; single sc dose 100 nmol/kg) [%] |
| --- | --- | --- | --- | --- | --- | --- | --- | --- | --- | --- | --- | --- | --- | --- |
| CC[C@H](C)[C@H](NC(=O)[C@H](C)NC(=O)CNC(=O)[C@H](Cc1ccccc1)NC(=O)[C@H](CC(N)=O)NC(=O)[C@@H]1CCCN1C(=O)[C@H](CO)NC(=O)[C@H](CO)NC(=O)[C@H](Cc1c[nH]cn1)NC(=O)[C@H](CCCNC(=N)N)NC(=O)[C@H](CC(C)C)NC(=O)[C@H](Cc1ccccc1)NC(=O)[C@H](CC(=O)O)NC(=O)[C@H](C)NC(=O)[C@H](CC(C)C)NC(=O)[C@H](CCCNC(=N)N)NC(=O)[C@H](CCC(N)=O)NC(=O)[C@@H](NC(=O)[C@H](C)NC(=O)[C@@H]1CSSC[C@H](NC(=O)[C@@H](N)CCCCNC(=O)CC[C@H](NC(=O)CC[C@H](NC(=O)CCCCCCCCCCCCCCCCCCC(=O)O)C(=O)O)C(=O)O)C(=O)N[C@@H](CC(N)=O)C(=O)N[C@@H]([C@@H](C)O)C(=O)N[C@@H](C)C(=O)N[C@@H]([C@@H](C)O)C(=O)N1)[C@@H](C)O)C(=O)N1CCC[C@H]1C(=O)N[C@@H](CO)C(=O)N[C@@H](CO)C(=O)N[C@H](C(=O)N[C@@H](CC(N)=O)C(=O)N[C@H](C(=O)NCC(=O)N[C@@H](CO)C(=O)N[C@@H](CCCNC(=N)N)C(=O)N[C@H](C(=O)N[C@@H](Cc1ccc(O)cc1)C(N)=O)[C@@H](C)O)C(C)C)[C@@H](C)O [NN1213] | – | – | – | – | 391 | – | 465 | – | – | – | – | 15 | 25 | 70 |
